Experimental data from article PMC4917448 (Journal of biomolecular screening, 2016).
Entries after “also recorded” stand apart in the source; their conditions may differ.

Key:
HCT116 cells = assay: CellTiter-Glo cell viability assay in HCT116; assay type: cell-based, human; conditions: for IC50: Homo sapiens, HCT-116, 1 h, read-out: Viability: IC50, HCT116; for Viability: IC50, HCT116: cherry-pick confirmation, 1 hour
[1] = CellTiter-Glo cell viability assay in HCT116; assay type: cell-based, human; conditions: human, HCT116 cells
human neural stem cells = assay: CellTiter-Glo cell viability assay in hNSC; assay type: cell-based; conditions: for IC50: Homo sapiens, Neural stem cell, 1 h, read-out: Viability: IC50, hNSC; for Viability: IC50, hNSC: cherry-pick confirmation, 1 hour
[2] = CellTiter-Glo cell viability assay in hNSC; assay type: cell-based, human; conditions: human, human neural stem cells (hNSC)
HDAC I/II [3] = assay: HDAC-Glo I/II assay in HCT116 cells; assay type: cell-based, human; conditions: for HDAC-Glo: Efficacy, HCT116 / Efficacy, HDAC-Glo I/II HCT116 assay: maximal response
HDAC I/II [4] = assay: HDAC-Glo I/II assay in human neural stem cells; assay type: cell-based; conditions: for HDAC-Glo: Efficacy, hNSC: maximal response; for inhibition of HDAC-Glo I/II luminescence signals: hNSCs, Figure 2
HDAC3 = HDAC3 (Homo sapiens, UniProt O15379); assay: Fluorogenic isoform-specific HDAC assay, HDAC3; assay type: biochemical
HDAC8 = target: T1, HDAC8 (Homo sapiens, UniProt Q9BY41); assay: Fluorogenic isoform-specific HDAC assay, HDAC8; assay type: biochemical
T1 sequence (Q9BY41 1-377): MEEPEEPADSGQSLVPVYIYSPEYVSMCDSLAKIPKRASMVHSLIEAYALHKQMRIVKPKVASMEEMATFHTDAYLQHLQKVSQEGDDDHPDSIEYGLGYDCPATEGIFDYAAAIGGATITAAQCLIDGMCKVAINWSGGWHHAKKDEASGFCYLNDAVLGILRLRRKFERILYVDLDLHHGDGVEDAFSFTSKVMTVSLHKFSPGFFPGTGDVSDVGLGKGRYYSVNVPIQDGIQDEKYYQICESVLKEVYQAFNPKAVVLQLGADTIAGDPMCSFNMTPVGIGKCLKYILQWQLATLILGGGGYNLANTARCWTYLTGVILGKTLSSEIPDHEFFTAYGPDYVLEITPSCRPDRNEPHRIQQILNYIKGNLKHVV

HDAC5 = HDAC5 (Homo sapiens, UniProt Q9UQL6); assay: Fluorogenic isoform-specific HDAC assay, HDAC5; assay type: biochemical
HDAC7 = target: T2, HDAC7 (Homo sapiens, UniProt Q8WUI4); assay: Fluorogenic isoform-specific HDAC assay, HDAC7; assay type: biochemical; conditions: Figure 4D, Suppl. Table S4
T2 sequence (Q8WUI4 1-952): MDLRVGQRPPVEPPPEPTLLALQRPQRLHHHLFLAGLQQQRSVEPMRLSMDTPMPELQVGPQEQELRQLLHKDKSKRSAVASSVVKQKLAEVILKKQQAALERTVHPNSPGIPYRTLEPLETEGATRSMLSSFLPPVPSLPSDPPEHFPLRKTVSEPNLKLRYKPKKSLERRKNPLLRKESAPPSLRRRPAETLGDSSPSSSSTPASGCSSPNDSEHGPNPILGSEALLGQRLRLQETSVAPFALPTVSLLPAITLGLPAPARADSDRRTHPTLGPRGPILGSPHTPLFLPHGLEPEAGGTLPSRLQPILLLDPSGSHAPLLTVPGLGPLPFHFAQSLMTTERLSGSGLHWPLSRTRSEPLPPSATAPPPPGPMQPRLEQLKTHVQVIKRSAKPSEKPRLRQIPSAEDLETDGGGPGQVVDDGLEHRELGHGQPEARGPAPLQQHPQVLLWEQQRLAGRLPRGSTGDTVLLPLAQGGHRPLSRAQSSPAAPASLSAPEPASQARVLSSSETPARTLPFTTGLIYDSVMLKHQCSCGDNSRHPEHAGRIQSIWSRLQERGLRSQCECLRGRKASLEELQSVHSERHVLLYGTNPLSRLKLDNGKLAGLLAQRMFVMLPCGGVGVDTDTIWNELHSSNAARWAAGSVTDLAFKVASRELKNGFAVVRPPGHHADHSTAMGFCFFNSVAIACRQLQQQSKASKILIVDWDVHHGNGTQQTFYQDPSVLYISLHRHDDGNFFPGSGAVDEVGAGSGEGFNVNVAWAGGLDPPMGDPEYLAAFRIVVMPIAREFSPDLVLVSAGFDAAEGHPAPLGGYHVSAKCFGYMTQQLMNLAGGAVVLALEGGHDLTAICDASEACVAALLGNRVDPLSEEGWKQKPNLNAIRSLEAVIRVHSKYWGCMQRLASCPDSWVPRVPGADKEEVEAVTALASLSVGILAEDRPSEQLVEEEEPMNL

HDAC1 = HDAC1 (Homo sapiens, UniProt Q13547); assay: Fluorogenic isoform-specific HDAC assay, HDAC1; assay type: biochemical
HDAC9 = HDAC9 (Homo sapiens, UniProt Q9UKV0); assay: Fluorogenic isoform-specific HDAC assay, HDAC9; assay type: biochemical
HDAC6 = target: T3, HDAC6 (Homo sapiens, UniProt Q9UBN7); assay: Fluorogenic isoform-specific HDAC assay, HDAC6; assay type: biochemical
T3 sequence (Q9UBN7 1-1215): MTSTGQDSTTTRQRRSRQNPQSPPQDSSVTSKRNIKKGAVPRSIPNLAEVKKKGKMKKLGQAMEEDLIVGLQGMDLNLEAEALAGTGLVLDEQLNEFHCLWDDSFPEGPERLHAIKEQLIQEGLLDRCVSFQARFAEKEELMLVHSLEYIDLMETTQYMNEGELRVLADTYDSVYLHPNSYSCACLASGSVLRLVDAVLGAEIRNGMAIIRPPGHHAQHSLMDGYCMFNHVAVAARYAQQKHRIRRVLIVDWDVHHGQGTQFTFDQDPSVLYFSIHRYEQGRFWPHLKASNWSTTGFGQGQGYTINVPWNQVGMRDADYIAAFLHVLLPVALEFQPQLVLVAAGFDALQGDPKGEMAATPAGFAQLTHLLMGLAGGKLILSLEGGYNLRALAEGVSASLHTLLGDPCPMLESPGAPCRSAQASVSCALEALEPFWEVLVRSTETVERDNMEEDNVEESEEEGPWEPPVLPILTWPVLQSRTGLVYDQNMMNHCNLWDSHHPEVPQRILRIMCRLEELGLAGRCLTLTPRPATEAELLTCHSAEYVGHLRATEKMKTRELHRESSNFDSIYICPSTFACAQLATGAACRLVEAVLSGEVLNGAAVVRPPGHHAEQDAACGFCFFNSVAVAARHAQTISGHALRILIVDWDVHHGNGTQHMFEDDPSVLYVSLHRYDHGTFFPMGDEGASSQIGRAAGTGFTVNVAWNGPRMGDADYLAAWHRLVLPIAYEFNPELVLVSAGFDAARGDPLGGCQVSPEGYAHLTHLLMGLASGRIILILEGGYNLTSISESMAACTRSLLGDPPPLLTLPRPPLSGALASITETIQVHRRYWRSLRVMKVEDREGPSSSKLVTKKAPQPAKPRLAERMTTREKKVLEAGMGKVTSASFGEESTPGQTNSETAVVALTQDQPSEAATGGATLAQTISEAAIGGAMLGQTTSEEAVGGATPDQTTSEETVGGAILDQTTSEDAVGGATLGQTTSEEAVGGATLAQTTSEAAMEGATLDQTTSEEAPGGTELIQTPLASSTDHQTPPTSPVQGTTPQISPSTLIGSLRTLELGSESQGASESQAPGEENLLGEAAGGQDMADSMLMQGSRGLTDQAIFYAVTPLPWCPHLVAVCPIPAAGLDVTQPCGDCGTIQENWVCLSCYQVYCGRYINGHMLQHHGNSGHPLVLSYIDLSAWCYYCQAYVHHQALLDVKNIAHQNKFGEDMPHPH

HDAC2 = HDAC2 (Homo sapiens, UniProt Q92769); assay: Fluorogenic isoform-specific HDAC assay, HDAC2; assay type: biochemical
HDAC4 = HDAC4 (Homo sapiens, UniProt P56524); assay: Fluorogenic isoform-specific HDAC assay, HDAC4; assay type: biochemical
[5] = tested on: class I and II HDAC enzymes; assay: Panel of fluorogenic assays against ten class I and II HDAC isoforms; assay type: biochemical, human
HDAC I/II [6] = assay: HDAC-Glo I/II assay in HEK293 cells; assay type: cell-based, human; conditions: read-out: average IC50, HDAC-Glo I/II activity; HEK293, assay optimization, Figure 1A
HDAC I/II [7] = assay: HDAC-Glo I/II assay in HepG2 cells; assay type: cell-based, human; conditions: read-out: average IC50, HDAC-Glo I/II activity; HepG2, assay optimization, Figure 1A
HDAC I/II [8] = assay: HDAC-Glo I/II assay in SU-DHL-6 cells; assay type: cell-based, human; conditions: read-out: average IC50, HDAC-Glo I/II activity; SU-DHL-6, assay optimization, Figure 1A
[9] = read-out: HDAC-Glo: IC50, HCT116, cherry-pick confirmation, 11 concentrations, 1 hour
[10] = read-out: IC50, HDAC-Glo I/II HCT116 assay, powder confirmation
[11] = read-out: HDAC-Glo: IC50, hNSC, cherry-pick confirmation, 11 concentrations, 1 hour

Chain of HDAC5 (Q9UQL6 whole entry, canonical isoform): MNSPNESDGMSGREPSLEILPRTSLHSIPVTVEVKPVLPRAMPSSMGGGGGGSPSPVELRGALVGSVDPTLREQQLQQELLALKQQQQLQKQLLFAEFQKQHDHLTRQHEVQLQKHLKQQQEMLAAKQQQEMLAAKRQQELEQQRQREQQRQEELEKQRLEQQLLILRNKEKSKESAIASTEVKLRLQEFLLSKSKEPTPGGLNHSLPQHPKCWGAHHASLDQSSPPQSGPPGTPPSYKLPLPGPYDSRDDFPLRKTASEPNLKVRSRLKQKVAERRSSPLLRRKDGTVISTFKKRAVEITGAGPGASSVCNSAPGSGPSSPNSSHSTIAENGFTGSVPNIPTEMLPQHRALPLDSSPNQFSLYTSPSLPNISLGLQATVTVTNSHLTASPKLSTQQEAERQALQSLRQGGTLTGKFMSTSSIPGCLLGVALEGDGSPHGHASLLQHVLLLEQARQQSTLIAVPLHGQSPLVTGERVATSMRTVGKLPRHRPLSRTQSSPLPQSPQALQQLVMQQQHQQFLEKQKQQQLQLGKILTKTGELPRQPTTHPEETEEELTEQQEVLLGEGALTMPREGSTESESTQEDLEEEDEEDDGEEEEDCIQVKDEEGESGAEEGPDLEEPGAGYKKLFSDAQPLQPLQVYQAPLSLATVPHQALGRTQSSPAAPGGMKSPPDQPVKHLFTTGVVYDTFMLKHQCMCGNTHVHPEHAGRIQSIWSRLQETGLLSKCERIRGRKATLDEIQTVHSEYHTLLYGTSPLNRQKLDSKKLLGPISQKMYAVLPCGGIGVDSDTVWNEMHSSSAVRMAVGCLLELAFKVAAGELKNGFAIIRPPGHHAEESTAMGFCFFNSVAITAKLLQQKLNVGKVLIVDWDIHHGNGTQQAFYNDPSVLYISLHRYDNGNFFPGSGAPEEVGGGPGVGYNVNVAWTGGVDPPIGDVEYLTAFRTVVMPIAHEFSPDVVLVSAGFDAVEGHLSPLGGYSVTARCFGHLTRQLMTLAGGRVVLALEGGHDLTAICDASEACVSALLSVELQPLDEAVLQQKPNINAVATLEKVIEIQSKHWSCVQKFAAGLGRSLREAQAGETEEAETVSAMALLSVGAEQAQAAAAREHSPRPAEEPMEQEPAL
Chain of HDAC9 (Q9UKV0 whole entry, canonical isoform): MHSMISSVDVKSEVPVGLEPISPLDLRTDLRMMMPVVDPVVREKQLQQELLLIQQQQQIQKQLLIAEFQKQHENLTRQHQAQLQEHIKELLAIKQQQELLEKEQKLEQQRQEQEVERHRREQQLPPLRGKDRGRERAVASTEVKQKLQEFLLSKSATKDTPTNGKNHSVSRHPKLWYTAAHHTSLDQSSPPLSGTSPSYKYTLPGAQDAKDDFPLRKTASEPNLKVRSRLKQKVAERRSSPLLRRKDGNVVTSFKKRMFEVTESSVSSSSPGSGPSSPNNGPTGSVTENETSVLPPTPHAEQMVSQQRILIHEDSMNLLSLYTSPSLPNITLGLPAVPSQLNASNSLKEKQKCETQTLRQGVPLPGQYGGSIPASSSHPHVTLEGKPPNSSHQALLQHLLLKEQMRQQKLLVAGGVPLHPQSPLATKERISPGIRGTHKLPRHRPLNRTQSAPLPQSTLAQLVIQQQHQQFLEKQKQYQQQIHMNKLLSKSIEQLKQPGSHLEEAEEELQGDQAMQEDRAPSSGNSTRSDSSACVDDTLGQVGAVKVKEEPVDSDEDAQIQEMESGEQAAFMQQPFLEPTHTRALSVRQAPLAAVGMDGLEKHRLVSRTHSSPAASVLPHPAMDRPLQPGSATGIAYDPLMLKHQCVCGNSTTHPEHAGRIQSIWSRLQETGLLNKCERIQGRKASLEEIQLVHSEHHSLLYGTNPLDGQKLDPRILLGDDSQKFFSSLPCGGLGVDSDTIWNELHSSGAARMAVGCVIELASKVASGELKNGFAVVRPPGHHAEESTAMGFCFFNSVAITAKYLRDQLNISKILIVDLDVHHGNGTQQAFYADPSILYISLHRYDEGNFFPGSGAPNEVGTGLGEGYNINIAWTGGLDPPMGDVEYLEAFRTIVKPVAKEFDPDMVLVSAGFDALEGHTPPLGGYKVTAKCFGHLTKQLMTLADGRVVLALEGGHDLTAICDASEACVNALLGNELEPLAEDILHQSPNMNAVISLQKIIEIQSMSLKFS
Chain of HDAC3 (O15379 whole entry, canonical isoform): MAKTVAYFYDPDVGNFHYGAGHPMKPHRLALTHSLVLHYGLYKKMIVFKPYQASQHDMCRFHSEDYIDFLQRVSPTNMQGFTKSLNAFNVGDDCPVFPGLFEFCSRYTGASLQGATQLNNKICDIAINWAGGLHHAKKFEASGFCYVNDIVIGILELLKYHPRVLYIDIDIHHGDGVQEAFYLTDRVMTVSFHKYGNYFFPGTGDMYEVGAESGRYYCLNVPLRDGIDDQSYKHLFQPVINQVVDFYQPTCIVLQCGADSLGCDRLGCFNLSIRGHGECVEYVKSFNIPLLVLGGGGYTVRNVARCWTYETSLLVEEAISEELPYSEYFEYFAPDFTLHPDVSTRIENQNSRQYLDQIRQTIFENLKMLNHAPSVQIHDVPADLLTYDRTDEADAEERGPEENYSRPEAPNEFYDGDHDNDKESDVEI
Chain of HDAC3 (Q9Y618 395-489 partner limits assumed): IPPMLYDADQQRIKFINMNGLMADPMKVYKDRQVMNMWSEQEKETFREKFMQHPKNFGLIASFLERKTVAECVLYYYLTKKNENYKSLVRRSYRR
Chain of HDAC1 (Q13547 whole entry, canonical isoform): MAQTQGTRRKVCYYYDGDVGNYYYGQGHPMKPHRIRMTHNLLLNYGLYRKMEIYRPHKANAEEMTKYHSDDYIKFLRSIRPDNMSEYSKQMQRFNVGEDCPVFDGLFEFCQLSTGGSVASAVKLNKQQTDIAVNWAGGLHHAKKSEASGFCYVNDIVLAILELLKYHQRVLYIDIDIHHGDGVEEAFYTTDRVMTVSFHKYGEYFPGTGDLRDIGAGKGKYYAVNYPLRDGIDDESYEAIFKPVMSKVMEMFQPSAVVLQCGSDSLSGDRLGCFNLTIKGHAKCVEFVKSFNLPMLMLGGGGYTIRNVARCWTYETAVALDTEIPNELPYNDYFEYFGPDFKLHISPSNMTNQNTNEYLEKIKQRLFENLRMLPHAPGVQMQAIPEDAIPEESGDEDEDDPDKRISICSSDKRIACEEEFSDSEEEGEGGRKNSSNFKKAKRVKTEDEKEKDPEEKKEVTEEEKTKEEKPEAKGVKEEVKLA
Chain of HDAC2 (Q92769 whole entry, canonical isoform): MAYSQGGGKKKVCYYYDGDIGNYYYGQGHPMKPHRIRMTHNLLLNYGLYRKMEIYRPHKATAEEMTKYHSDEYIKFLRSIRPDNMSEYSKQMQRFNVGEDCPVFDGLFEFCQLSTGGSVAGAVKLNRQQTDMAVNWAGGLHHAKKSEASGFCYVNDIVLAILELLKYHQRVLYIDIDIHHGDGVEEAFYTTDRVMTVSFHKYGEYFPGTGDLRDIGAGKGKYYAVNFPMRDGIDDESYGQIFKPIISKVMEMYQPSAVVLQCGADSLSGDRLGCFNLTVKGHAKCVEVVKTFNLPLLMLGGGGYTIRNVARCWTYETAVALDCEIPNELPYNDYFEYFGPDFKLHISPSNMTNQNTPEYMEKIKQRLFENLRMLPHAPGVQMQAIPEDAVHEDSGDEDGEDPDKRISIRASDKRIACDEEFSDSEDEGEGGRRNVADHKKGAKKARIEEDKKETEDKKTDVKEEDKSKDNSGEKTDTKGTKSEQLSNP
Chain of HDAC4 (P56524 whole entry, canonical isoform): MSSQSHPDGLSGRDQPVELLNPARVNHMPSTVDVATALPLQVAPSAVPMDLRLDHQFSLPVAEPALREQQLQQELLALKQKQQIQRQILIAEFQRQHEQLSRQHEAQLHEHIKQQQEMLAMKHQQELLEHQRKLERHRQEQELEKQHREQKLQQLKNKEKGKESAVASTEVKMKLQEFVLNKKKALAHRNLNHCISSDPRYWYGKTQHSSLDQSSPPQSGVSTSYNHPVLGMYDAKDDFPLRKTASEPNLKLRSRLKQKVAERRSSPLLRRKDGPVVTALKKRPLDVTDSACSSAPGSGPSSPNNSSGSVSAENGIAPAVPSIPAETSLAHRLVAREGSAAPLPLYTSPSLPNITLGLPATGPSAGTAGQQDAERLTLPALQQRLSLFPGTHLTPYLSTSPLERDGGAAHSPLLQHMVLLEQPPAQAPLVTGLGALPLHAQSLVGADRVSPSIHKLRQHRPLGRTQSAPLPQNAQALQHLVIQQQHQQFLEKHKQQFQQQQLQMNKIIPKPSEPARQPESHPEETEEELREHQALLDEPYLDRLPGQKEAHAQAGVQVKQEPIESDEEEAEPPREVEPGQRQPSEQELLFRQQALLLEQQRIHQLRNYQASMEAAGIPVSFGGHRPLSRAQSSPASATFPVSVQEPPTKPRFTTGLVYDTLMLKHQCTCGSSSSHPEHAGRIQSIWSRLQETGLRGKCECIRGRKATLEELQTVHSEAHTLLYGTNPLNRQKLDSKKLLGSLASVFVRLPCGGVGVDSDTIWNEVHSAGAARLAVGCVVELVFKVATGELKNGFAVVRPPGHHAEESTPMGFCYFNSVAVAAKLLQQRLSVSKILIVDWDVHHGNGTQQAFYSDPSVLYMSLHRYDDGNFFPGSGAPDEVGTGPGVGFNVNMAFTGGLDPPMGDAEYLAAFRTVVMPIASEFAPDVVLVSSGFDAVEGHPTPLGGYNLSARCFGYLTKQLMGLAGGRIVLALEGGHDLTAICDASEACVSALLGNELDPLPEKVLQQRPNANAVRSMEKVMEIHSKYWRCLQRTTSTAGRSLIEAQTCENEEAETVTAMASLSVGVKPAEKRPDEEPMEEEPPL

Structure (SMILES)	IC50 (HCT116 cells)	viability at 1 h [1]	IC50 (human neural stem cells)	viability at 1 h [2]	HDAC-Glo: Efficacy, HCT116 (HDAC I/II [3]; cherry-pick confirmation)	Efficacy, HDAC-Glo I/II HCT116 assay (HDAC I/II [3]; powder confirmation)	IC50 (HDAC I/II [3]; [9])	IC50 (HDAC I/II [3]; [10])	HDAC-Glo: Efficacy, hNSC (HDAC I/II [4]; cherry-pick confirmation)	IC50 (HDAC I/II [4]; [11])	IC50 (HDAC8)	Viability: IC50, HCT116 (HCT116 cells)	IC50 (HDAC5)	IC50 (HDAC3)	IC50 (HDAC9)	IC50 (HDAC6)	inhibition of HDAC-Glo I/II luminescence signals (HDAC I/II [4]; cherry-pick confirmation)	IC50 (HDAC2)	Viability: IC50, hNSC (human neural stem cells)	also measured
CC(=O)Oc1ccccc1C(=O)Nc1ncc([N+](=O)[O-])s1 [Nitazoxanide]	23600 ± 12000 nM	62%	12400 ± 4650 nM	40%	116 ± 1%	99 ± 0%	1600 ± 100 nM	1350 ± 140 nM	104 ± 1%	1050 ± 120 nM										
O=S(=O)(O)c1ccc2[nH]c(-c3ccccc3)nc2c1 [Ensulizole]	13400 ± 2800 nM	70%	16000 ± 1040 nM	58%	116 ± 5%	98 ± 0%	6130 ± 3060 nM	1660 ± 730 nM	111 ± 1%	1940 ± 970 nM										inhibition of HDAC3 (in words) (HDAC3; 20 μM): selectively inhibited; also recorded: selective to HDAC3
Oc1cc(O)cc(/C=C/c2ccc(O)c(O)c2)c1 [Piceatannol]			19500 ± 2490 nM	25%	105 ± 7%	60 ± 4%	5900 nM	10300 ± 1060 nM	108 ± 4%	4180 nM	3420 nM	Inactive	890 nM	23300 nM	9950 nM	8220 nM	completely inhibited	5040 nM		inhibition of HDAC activity, HDAC5 (HDAC5; Figure 4D, Suppl. Table S4): over 30%; inhibition of HDAC activity, HDAC7 (HDAC7): over 30%; inhibition of HDAC activity, HDAC1 (HDAC1; Figure 4C, Suppl. Table S4): over 30%; inhibition of HDAC activity, HDAC9 (HDAC9; Figure 4D, Suppl. Table S4): over 30%
N=C(N)c1ccc2cc(OC(=O)c3ccc(N=C(N)N)cc3)ccc2c1 [Nafamostat]					116 ± 3%	99 ± 0%	1110 ± 250 nM	120 ± 30 nM	108 ± 1%	360 ± 140 nM	1520 nM	Inactive	1330 nM	4040 nM	1550 nM	4390 nM	completely inhibited	4690 nM	Inactive	IC50 (HDAC4): 1490 nM; isoform selectivity ([5]; red-shifted versions of fluorogenic assays, Figure 4A, 4B): more selective in inhibiting HDAC4, HDAC5, and HDAC8 than other HDAC isoforms; IC50 (HDAC1): 4670 nM
CC(/C=C/C(=O)NO)=C\[C@@H](C)C(=O)c1ccc(N(C)C)cc1 [Trichostatin A]					119 ± 5%	99 ± 0%	70 ± 10 nM	110 ± 10 nM	114 ± 6%	100 ± 20 nM		Inactive							Inactive	IC50 (HDAC I/II [6]): 90 nM; inhibition against all class I and II HDAC enzymes ([5]; 20 μM): over 80%; inhibition of HDAC isoforms (in words) ([5]; 20 μM, Figure 3): inhibited activities of all isoforms; IC50 (HDAC I/II [7]): 50 nM; HDAC I/II inhibitory activity (in words) (HDAC I/II [3]; HCT116 and HEK293 cells, validation with epigenetics libraries): greatly inhibited HDAC-Glo I/II activity; IC50 (HDAC I/II [3]; read-out: IC50, HDAC-Glo I/II, HCT116 cells, time course, one hour treatment): 50 ± 30 nM; IC50 (HDAC I/II [3]; read-out: average IC50, HDAC-Glo I/II activity, HCT116, assay optimization, Figure 1A): 250 nM; IC50 (HDAC I/II [4]; read-out: average IC50, HDAC-Glo I/II activity, hNSC, assay optimization, Figure 1A): 440 nM; IC50 (HDAC I/II [8]): 100 nM
O=C(O)c1cccc(-c2noc(-c3ccccc3F)n2)c1 [Ataluren (PTC-124), Ataluren]	14400 ± 2450 nM	103%	14300 ± 930 nM	86 ± 60.2%	111 ± 4%		830 nM		109 ± 3%	800 ± 50 nM										
